Like-named read-outs stand apart in the source and are kept apart here. No end group written: not given here.
Target: T1, wild-type GPR103 (Homo sapiens, UniProt Q96P65)
T1 construct: we used human full-length QRFPR-encoding plasmids; expressed in transfected cells; host or cells: HEK293 cells, pCAGGS vector
T1 sequence (Q96P65 1-431): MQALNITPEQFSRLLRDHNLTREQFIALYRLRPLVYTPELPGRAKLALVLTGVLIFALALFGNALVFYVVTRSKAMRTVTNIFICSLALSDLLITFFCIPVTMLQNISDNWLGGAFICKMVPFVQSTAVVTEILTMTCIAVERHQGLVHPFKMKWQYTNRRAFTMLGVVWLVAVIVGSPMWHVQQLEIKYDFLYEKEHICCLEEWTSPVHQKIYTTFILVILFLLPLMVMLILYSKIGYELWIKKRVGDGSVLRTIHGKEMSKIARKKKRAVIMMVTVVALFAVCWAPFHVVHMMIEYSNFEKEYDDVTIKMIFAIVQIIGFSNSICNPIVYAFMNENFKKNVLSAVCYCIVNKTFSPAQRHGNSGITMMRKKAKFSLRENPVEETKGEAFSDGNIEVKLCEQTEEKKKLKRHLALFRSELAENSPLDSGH
Assay: TGFα shedding assay, HEK293 cells; WT titrated to lower expression (1:1 to 1:50)
Assay type: cell-based
Protocol: For the TGFα shedding assay and the flow cytometry analysis, we used human full-length QRFPR-encoding plasmids. Specifically, GPR103 was N-terminally modified with an HA signal sequence followed by a FLAG epitope and then a flexible linker ([…]; the FLAG epitope is underlined) and inserted into the pCAGGS vector. Plasmid encoding GPR103 mutants were generated using Quickchange Site-Directed Mutagensis kit (Agilent).
The TGFα shedding assay was performed as described previously with minor modifications. Plasmid transfection was performed in a 6-well plate with a mixture of 500 ng (per well in a 6-well plate) AP-TGFα-encoding plasmid and 200 ng GPR103-encoding plasmid. After 1-day culture, the transfected cells were harvested by trypsinization, pelleted by centrifugation at 190 × g for 5 min, and washed once with 5 mM HEPES (pH 7.4)-containing Hank’s Balanced Salt Solution (HBSS). After centrifugation, the cells were resuspended in 8 mL of the HEPES-containing HBSS. The cell suspension was seeded in a 96-well culture plate (cell plate) at a volume of 90 μL (per well hereafter) and incubated in a 37 °C incubator with 5% CO2 for 30 min. […] After spinning the cell plates at 190 × g for 2 min, 80 μL of conditioned media was transferred to an empty 96-well plate (conditioned media (CM) plate). Then, 80 μL of AP reaction solution (10 mM p-nitrophenylphosphate (p-NPP), 120 mM Tris-HCl (pH 9.5), 40 mM NaCl, and 10 mM MgCl2) was dispensed into the cell plates and the CM plates. Absorbance at 405 nm of the plates was measured using a microplate reader (SpectraMax 340 PC384, Molecular Devices) before and after 1-h incubation at room temperature. Ligand-induced AP-TGFα release was calculated by subtracting spontaneous AP-TGFα release signal from ligand-induced AP-TGFα release signal. The AP-TGFα release signals were fitted to a four-parameter sigmoidal concentration–response curve, using the Prism 10 software (GraphPad Prism). For each replicate experiment, the pEC50 parameter (negative logarithmic values of EC50 values) of the individual GPR103 mutants were normalized to that of the wild-type GPR103 performed in parallel, and resulting ∆pEC50 values were used to denote ligand response activity of the mutants. […]
Exp. le vel: WT (1:5 0)Exp. le vel: WT (1:5 0)Exp. le vel: WT (1:5 0)Exp. le vel: WT (1:2 0)Exp. le vel: WT (1:2 0)Exp. le vel: WT (1:1 0) […]
L1 4N - t e r mA F2 5N - t e r mA I 2 6N - t e r mA Y 2 9N - t e r mA C 9 82 .5 7A T10 22 .6 1A Exp . l eve l: WT (1 :5)Exp . l evel : >WT (1 :1)Exp. le vel: WT (1:2 0)Exp. le vel: WT (1:2 0)Exp. le vel: WT (1:5 0)Exp . l eve l: WT (1 :1) […]
Exp. le vel: WT (1:1 0)Exp. le vel: WT (1:2 0) C 1 1 83 .2 5AExp. le vel: WT (1:5 0)Exp. le vel: WT (1:5 0)Exp. le vel: WT (1:2 0)Exp . l eve l: WT (1 :5) […]
Exp. le vel: WT (1:5 0)Exp. le vel: WT (1:1 0)Exp. le vel: WT (1:5 0) E203ECL2AExp . l evel : >WT (1 :1)Exp. le vel: WT (1:5 0)Exp. le vel: WT (1:5 0) […]
Exp . l eve l: WT (1 :1) F28Exp. le vel: WT (1:5 0) C 2 8 56 .4 7AExp. le vel: WT (1:2 0) WExp. le vel: WT (1:2 0) F28Exp. le vel: WT (1:5 0)Exp . l evel : >WT (1 :1) […]
Exp. le vel: WT (1:5 0)Exp. le vel: WT (1:5 0) C 3 2 77 .4 8AExp . l eve l: WT (1 :5)Exp . l evel : >WT (1 :1)Exp . l evel : >WT (1 :1) […]
Suppl eme nt ary Figure 1 | Mutational analysis of GPR103. […]
mutants. Data are presented as mean values ± SEM, normally n=3-5; dots), each performed in triplicate. b-d Cell-surface expression (b) and QRFP26-in-duced activation of GPR103 (c, d) were analyzed by the flow cytometry and the TGFα shedding assay, respectively. From the concentration–response curves (a), Emax (c) and ΔpEC50 (d) values relative to the wild type were calculated. Colors in the mutant bars indicate an expression level matching to that of titrated wild type. Statistical analyses were performed using the ordinary one-way ANOVA followed by Dunnett tests with the expression-matched […]

Emax (HEK293, WT (1:2), mean, read-out: Emax): 102%
Emax (HEK293, WT (1:2), n = 5, read-out: Emax): 102 ± 1.4%
Emax (HEK293, WT (1:5), mean, read-out: Emax): 98%
Emax (HEK293, WT (1:10), mean, read-out: Emax): 85.2%
Emax (HEK293, WT (1:10), n = 5, read-out: Emax): 86.5 ± 1.5%
Emax (HEK293, WT (1:20), mean, read-out: Emax): 68.7%
Emax (HEK293, WT (1:20), n = 5, read-out: Emax): 69.6 ± 1.9%
Emax (HEK293, WT (1:50), mean, read-out: Emax): 40%
Emax (HEK293, WT (1:50), n = 3, read-out: Emax): 38.9 ± 2.7%
EC50 (WT (1:1), n = 5): 5.13 nM
Emax (WT (1:2), Exp. #1): 99.44 % WT
Emax (WT (1:2), Exp. #2): 98.59 % WT
Emax (WT (1:2), Exp. #3): 107.25 % WT
Emax (WT (1:2), Exp. #4): 101.53 % WT
Emax (WT (1:2), Exp. #5): 103.42 % WT
EC50 (WT (1:2), n = 5): 6.61 nM
Emax (WT (1:5), Exp. #1): 95.01 % WT
Emax (WT (1:5), Exp. #2): 93.02 % WT
Emax (WT (1:5), Exp. #3): 103.20 % WT
Emax (WT (1:5), Exp. #4): 97.64 % WT
Emax (WT (1:5), Exp. #5): 100.97 % WT
EC50 (WT (1:5), n = 5): 12.6 nM
Emax (WT (1:10), Exp. #1): 87.43 % WT
Emax (WT (1:10), Exp. #2): 82.73 % WT
Emax (WT (1:10), Exp. #3): 90.71 % WT
Emax (WT (1:10), Exp. #4): 84.24 % WT
Emax (WT (1:10), Exp. #5): 81.03 % WT
EC50 (WT (1:10), n = 5): 15.1 nM
Emax (WT (1:20), Exp. #1): 70.65 % WT
Emax (WT (1:20), Exp. #2): 70.10 % WT
Emax (WT (1:20), Exp. #3): 74.01 % WT
EC50 (WT (1:20), n = 5): 21.4 nM
Emax (WT (1:50), Exp. #3): 46.11 % WT
Emax (WT (1:50), Exp. #4): 34.55 % WT
Emax (WT (1:50), Exp. #5): 39.32 % WT
EC50 (WT (1:50), n = 3): 53.7 nM
Substance: TSGPLGNLAEELNGYSRKKGGFSFRF-NH2 [QRFP26]
